From PubChem BioAssay AID212 (DTP/NCI, 2004)
“And” between values parts separate entries of the source, which are not always exact repeats. Equal values may be shown once. Records with an inconclusive call do not appear.

Test system: BDF1 mice, colon carcinoma 38 sc, T/C %
Experiment: NCI In Vivo Anticancer Drug Screen. Data for tumor model Colon Carcinoma 38 (subcutaneous) in B6D2F1 (BDF1) mice
Details: endpoint: median tumor weight (est.), higher = larger tumour
Method in brief: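 Mice with transplanted tumors are treated with compound or vehicle. Survival or tumor size is then measured in both groups. The ratio of treated to control gives the reported figure.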

[1] = dose: 12.5 mg/kg/injection, schedule: Q07DX002 (ip), vehicle: Klucel (hydroxypropylcellulose) (HPC)
[2] = dose: 12.5 mg/kg/injection, schedule: Q07DX002 (ip), vehicle: saline
[3] = dose: 50.0 mg/kg/injection, schedule: Q07DX002 (ip), vehicle: saline
[4] = dose: 200.0 mg/kg/injection, schedule: Q07DX002 (ip), vehicle: saline with Tween-80
[5] = dose: 400.0 mg/kg/injection, schedule: Q07DX002 (ip), vehicle: saline with Tween-80
[6] = dose: 400.0 mg/kg/injection, schedule: Q07DX002 (ip), vehicle: saline
[7] = dose: 100.0 mg/kg/injection, schedule: Q07DX002 (ip), vehicle: saline
[8] = dose: 25.0 mg/kg/injection, schedule: Q07DX002 (ip), vehicle: saline with Tween-80
[9] = dose: 100.0 mg/kg/injection, schedule: Q07DX002 (ip), vehicle: saline with Tween-80
[10] = dose: 200.0 mg/kg/injection, schedule: Q07DX002 (ip), vehicle: saline

In the case of `O=C(Nc1ccc(N=C=S)cc1Cl)c1cc(Cl)cc(Cl)c1O`, the T/C [1] is reported as 64 % of control and 65 % of control, the T/C (dose: 50.0 mg/kg/injection, schedule: Q07DX002 (ip), vehicle: Klucel (hydroxypropylcellulose) (HPC)) is reported as 80 % of control and 87 % of control and the T/C (dose: 100.0 mg/kg/injection, schedule: Q07DX002 (ip), vehicle: Klucel (hydroxypropylcellulose) (HPC)) is reported as 79 % of control.

`COc1cc(C[C@H]2c3cc(OC)c(OC)cc3CCN2C)c(Oc2cc3c(cc2OC)-c2c(OC)c(OC)cc4c2[C@H](C3)N(C)CC4)cc1OC` was tested, and the T/C (dose: 25.0 mg/kg/injection, schedule: Q01DX005 (ip), vehicle: saline) was 59 % of control, the T/C (dose: 25.0 mg/kg/injection, schedule: Q04DX003 (ip), vehicle: saline) was 116 % of control and the T/C (dose: 50.0 mg/kg/injection, schedule: Q01DX005 (ip), vehicle: saline) was 198 % of control. The T/C (dose: 50.0 mg/kg/injection, schedule: Q04DX003 (ip), vehicle: saline) was 60 % of control, the T/C (dose: 100.0 mg/kg/injection, schedule: Q01DX005 (ip), vehicle: saline) was 64 % of control and the T/C (dose: 100.0 mg/kg/injection, schedule: Q04DX003 (ip), vehicle: saline) was 76 % of control. For the same molecule, the T/C (dose: 200.0 mg/kg/injection, schedule: Q01DX005 (ip), vehicle: saline) was 36 % of control.

`CC[C@@]1(O)C(=O)OCc2c1cc1n(c2=O)Cc2cc3ccccc3nc2-1` was tested, and the T/C (dose: 1.5 mg/kg/injection, schedule: Q07DX002 (ip), vehicle: saline with Tween-80) was 100 % of control, the T/C (dose: 3.0 mg/kg/injection, schedule: Q07DX002 (ip), vehicle: saline with Tween-80) was 92 % of control and the T/C (dose: 6.0 mg/kg/injection, schedule: Q07DX002 (ip), vehicle: saline with Tween-80) was 75 % of control. The T/C (dose: 12.0 mg/kg/injection, schedule: Q07DX002 (ip), vehicle: saline with Tween-80) was 90 % of control and the T/C (dose: 24.0 mg/kg/injection, schedule: Q07DX002 (ip), vehicle: saline with Tween-80) was 95 % of control.

With `Nc1ncn(C2OC(CO)C(O)C2O)c(=O)n1` (stereo not drawn) the T/C [2] was 69 % of control, the T/C (dose: 32.0 mg/kg/injection, schedule: Q07DX002 (ip), vehicle: saline) was 19 % of control and 31 % of control and the T/C [3] was 80 % of control and 85 % of control and 97 % of control. For the same molecule, the T/C [4] was 88 % of control, the T/C [5] was 61 % of control and the T/C [6] was 62 % of control and 79 % of control and 82 % of control. For the same molecule, the T/C (dose: 800.0 mg/kg/injection, schedule: Q07DX002 (ip), vehicle: saline with Tween-80) was 95 % of control, the T/C (dose: 800.0 mg/kg/injection, schedule: Q07DX002 (ip), vehicle: saline) was 27 % of control and the T/C (dose: 1200.0 mg/kg/injection, schedule: Q07DX002 (ip), vehicle: saline with Tween-80) was 55 % of control.

For `CCC(C)C(=O)OC1C(=O)OC2CC3C(C)=CC(=O)C(O)C3(C)C3C4(O)OCC23C1C(C)C4O` (stereo not drawn), the T/C (dose: 0.5 mg/kg/injection, schedule: Q07DX002 (ip), vehicle: suspension in saline) was 90 % of control, the T/C (dose: 1.0 mg/kg/injection, schedule: Q07DX002 (ip), vehicle: suspension in saline) was 77 % of control and the T/C (dose: 2.0 mg/kg/injection, schedule: Q07DX002 (ip), vehicle: suspension in saline) was 58 % of control. For the same molecule, the T/C (dose: 4.0 mg/kg/injection, schedule: Q07DX002 (ip), vehicle: suspension in saline) was 88 % of control and the T/C (dose: 8.0 mg/kg/injection, schedule: Q07DX002 (ip), vehicle: suspension in saline) was 44 % of control.

For `Cc1c2ccccc2cc2cccc[n+]12`, the T/C (dose: 10.0 mg/kg/injection, schedule: Q07DX002 (ip), vehicle: saline) was 87 % of control and 96 % of control, the T/C (dose: 20.0 mg/kg/injection, schedule: Q07DX002 (ip), vehicle: saline) was 77 % of control and the T/C (dose: 40.0 mg/kg/injection, schedule: Q07DX002 (ip), vehicle: saline) was 112 % of control and 94 % of control. The T/C (dose: 80.0 mg/kg/injection, schedule: Q07DX002 (ip), vehicle: saline) was 109 % of control.

With `CC[C@]1(O)C[C@H]2CN(CCc3c([nH]c4ccccc34)[C@@](C(=O)OC)(c3cc4c(cc3OC)N(C=O)[C@H]3[C@@](O)(C(=O)OC)[C@H](OC(C)=O)[C@]5(CC)C=CCN6CC[C@]43[C@@H]65)C2)C1` the T/C (dose: 0.01 mg/kg/injection, schedule: Q07DX002 (ip), vehicle: saline) was 123 % of control, the T/C (dose: 0.03 mg/kg/injection, schedule: Q07DX002 (ip), vehicle: saline) was 94 % of control and the T/C (dose: 0.06 mg/kg/injection, schedule: Q07DX002 (ip), vehicle: saline) was 95 % of control. For the same molecule, the T/C (dose: 0.12 mg/kg/injection, schedule: Q07DX002 (ip), vehicle: saline) was 54 % of control, the T/C (dose: 1.0 mg/kg/injection, schedule: Q07DX002 (ip), vehicle: saline) was 96 % of control and 106 % of control and the T/C (dose: 4.0 mg/kg/injection, schedule: Q07DX002 (ip), vehicle: saline) was 43 % of control and 63 % of control.

With `N=C(N)c1ccc(/C=C/c2ccc(C(=N)N)cc2)cc1` the T/C [1] was 73 % of control, the T/C (dose: 25.0 mg/kg/injection, schedule: Q07DX002 (ip), vehicle: Klucel (hydroxypropylcellulose) (HPC)) was 114 % of control and the T/C (dose: 36.0 mg/kg/injection, schedule: Q07DX002 (ip), vehicle: saline with Tween-80) was 67 % of control.

For `O=C(O)Cc1cccc2c(=O)cc(-c3ccco3)oc12`, the T/C [3] was 74 % of control and the T/C [7] was 53 % of control.

In the case of `CCCCCCCCCCCCCCCCCCCCCC(=O)Nc1ccn(C2OC(CO)C(O)C2O)c(=O)n1` (stereo not drawn), the T/C [2] is reported as 80 % of control, the T/C [8] is reported as 151 % of control and the T/C (dose: 25.0 mg/kg/injection, schedule: Q07DX002 (ip), vehicle: saline) is reported as 119 % of control and 105 % of control. The T/C (dose: 50.0 mg/kg/injection, schedule: Q07DX002 (ip), vehicle: saline with Tween-80) was 172 % of control, the T/C [9] was 82 % of control and the T/C [7] was 52 % of control and 65 % of control. The T/C [4] was 92 % of control, the T/C [10] was 52 % of control and the T/C [5] was 10 % of control. The T/C [6] was 29 % of control.

`CCCCCn1c(C)cc(/C=C\c2ccc3cc(C)ccc3[n+]2C)c1C` was tested, and the T/C (dose: 0.62 mg/kg/injection, schedule: Q07DX002 (ip), vehicle: Klucel (hydroxypropylcellulose) (HPC)) was 85 % of control and 86 % of control, the T/C (dose: 1.25 mg/kg/injection, schedule: Q07DX002 (ip), vehicle: Klucel (hydroxypropylcellulose) (HPC)) was 104 % of control and the T/C (dose: 37.5 micrograms/kg/injection, schedule: Q07DX002 (ip), vehicle: Klucel (hydroxypropylcellulose) (HPC)) was 84 % of control. The T/C (dose: 75.0 micrograms/kg/injection, schedule: Q07DX002 (ip), vehicle: Klucel (hydroxypropylcellulose) (HPC)) was 186 % of control, the T/C (dose: 150.0 micrograms/kg/injection, schedule: Q07DX002 (ip), vehicle: Klucel (hydroxypropylcellulose) (HPC)) was 162 % of control and the T/C (dose: 600.0 micrograms/kg/injection, schedule: Q07DX002 (ip), vehicle: Klucel (hydroxypropylcellulose) (HPC)) was 188 % of control.

`Cc1ccc(Cl)c2ccccc12` was tested, and the T/C (dose: 12.5 mg/kg/injection, schedule: Q07DX002 (ip), vehicle: saline with Tween-80) was 96 % of control and 102 % of control, the T/C [8] was 92 % of control and the T/C [9] was 89 % of control and 96 % of control. For the same molecule, the T/C [4] was 88 % of control and 96 % of control and the T/C [5] was 87 % of control.

For `Cc1ccccc1CN1C2=NCCN2C(=O)C2=C1CCN(S(=O)(=O)c1ccc(Cl)c(S(N)(=O)=O)c1)C2`, the T/C [3] was 97 % of control, the T/C [7] was 86 % of control and the T/C [10] was 91 % of control. The T/C [6] was 96 % of control, the T/C (dose: 450.0 mg/kg/injection, schedule: Q07DX002 (ip), vehicle: saline) was 84 % of control and the T/C (dose: 900.0 mg/kg/injection, schedule: Q07DX002 (ip), vehicle: saline) was 100 % of control. For the same molecule, the T/C (dose: 1800.0 mg/kg/injection, schedule: Q07DX002 (ip), vehicle: saline) was 110 % of control.

For `O=C(NP(=O)(N1CC1)N1CC1)c1cc(I)ccc1I`, the T/C (dose: 8.0 mg/kg/injection, schedule: Q07DX002 (ip), vehicle: Klucel (hydroxypropylcellulose) (HPC)) was 105 % of control, the T/C (dose: 16.0 mg/kg/injection, schedule: Q07DX002 (ip), vehicle: Klucel (hydroxypropylcellulose) (HPC)) was 47 % of control and the T/C (dose: 32.0 mg/kg/injection, schedule: Q07DX002 (ip), vehicle: Klucel (hydroxypropylcellulose) (HPC)) was 92 % of control. For the same molecule, the T/C (dose: 64.0 mg/kg/injection, schedule: Q07DX002 (ip), vehicle: Klucel (hydroxypropylcellulose) (HPC)) was 55 % of control, the T/C (dose: 128.0 mg/kg/injection, schedule: Q07DX002 (ip), vehicle: Klucel (hydroxypropylcellulose) (HPC)) was 22 % of control and the T/C (dose: 256.0 mg/kg/injection, schedule: Q07DX002 (ip), vehicle: Klucel (hydroxypropylcellulose) (HPC)) was 31 % of control.
